This is an account of results in patent publication US20130065818A1, “Arylamide Compounds And Compositions And Uses Thereof” (POLYMEDIX, priority 2006, published 2013).

The subject of assay [1] is Ciprofloxacin Susceptible (CS) S. aureus (CSSA). As to the kind of experiment: MIC of clinical ocular isolates (Example 1). The class given is cell-based. Conditions: Staphylococcus aureus; CSSA clinical ocular isolates (n=27).
The test system of assay [2] is Moraxella Species (MS). In words: MIC of clinical ocular isolates (Example 1). The class given is cell-based. Particulars: MS clinical ocular isolates (n=25).
For assay [3], the system named is Ciprofloxacin Resistant (CR) S. aureus (CRSA). As to the kind of experiment: MIC of clinical ocular isolates (Example 1). Conditions: Staphylococcus aureus; CRSA clinical ocular isolates (n=28). The class given is cell-based.
The subject of assay [4] is CS S. epidermidis (CSSE). In words: MIC of clinical ocular isolates (Example 1). The class given is cell-based. Conditions: Staphylococcus epidermidis; CSSE clinical ocular isolates (n=26).
Assay [5] relates to P. aeruginosa (PA). As to the kind of experiment: MIC of clinical ocular isolates (Example 1). The class given is cell-based. Conditions: Pseudomonas aeruginosa; PA clinical ocular isolates (n=26).
Assay [6] deals with St. pneumoniae (SP). As to the kind of experiment: MIC of clinical ocular isolates (Example 1). The class given is cell-based. Particulars: Streptococcus pneumoniae; SP clinical ocular isolates (n=27).
In assay [7] the test system is H. influenzae (HI). As to the kind of experiment: MIC of clinical ocular isolates (Example 1). The class given is cell-based. Particulars: Haemophilus influenzae; HI clinical ocular isolates (n=26).
Assay [8] concerns St. viridans group (SV). In words: MIC of clinical ocular isolates (Example 1). The class given is cell-based. Conditions: Streptococcus viridans.
Assay [9] concerns Serratia marcescens (SM). In words: MIC of clinical ocular isolates (Example 1). The class given is cell-based. Conditions: SM clinical ocular isolates (n=27).
Assay [10] deals with CR S. epidermidis (CRSE). As to the kind of experiment: MIC of clinical ocular isolates (Example 1). The class given is cell-based. Particulars: Staphylococcus epidermidis; CRSE clinical ocular isolates (n=26).
Assay [11] can be described thus: NZW rabbit keratitis model, clinical evaluation (Total Ocular Score). Conditions: Oligomer 2 study, N 3. The protocol:
Fifteen rabbits were received from Myrtles' Rabbitry, Thompson Station, TN. The clinical isolate of fluoroquinolone-resistant, methicillin-resistant (MRSA) Staphylococcus aureus (K950) was subcultured on 5% sheep blood agar and incubated at 37° C. in 6% CO2 overnight. The next morning, the MRSA strain was suspended in sterile trypticase soy broth to a 0.5 McFarland Standard, containing approximately 5×10^8 cfu/ml of bacteria. The absorbance of the suspension was measured at 650 nm using a Beckman DU-70 spectrophotometer. OD readings of 0.07 corresponded to 5×10^8 cfu/ml of bacteria. This concentration was appropriately diluted in sterile trypticase soy broth to provide the inoculum of approximately 1,000 (1.0×10^3) cfu/eye in 25 μl. Colony counts were performed on the inoculum to determine the actual cfu inoculated. Following general anesthesia with ketamine and xylazine and topical anesthesia with proparacaine and prior to bacterial inoculation in the left eyes, 6 mm areas of the corneal epithelia was removed centrally with an Amoils epithelial scrubber. Nothing was done to the right eyes. The 15 rabbits were then inoculated intrastromally in both eyes with 25 μl of the bacterial dilution of approximately 10^3 cfu/eye of the bacteria. The bacterial inoculation of the left eyes was directly under the epithelial defect created by the Amoils epithelial scrubber. The epithelia were removed in the left corneas in order to determine whether this layer of the cornea is a barrier for Oligomer 2 penetration when compared to the right cornea with an intact epithelium. A colony count was done on the inoculum to determine the actual cfu inoculated. The rabbits were immediately treated with analgesia in the form of and intramuscular injection of ketoprofen, 1.5 mg/kg. After 4 hours, the 15 rabbits were divided into 4 treatment groups and one untreated control group sacrificed at the onset of therapy. Both eyes of each rabbit of the treatment groups were treated with one 37 μl drop of the coded solutions or control Saline or 1 drop of vancomycin from its dropper bottle. The Oligomer 2 concentrations were masked and labeled as 1 and 2. The masked concentrations were 1% Oligomer 2 and 0.5% Oligomer 2 but the specific concentrations of solutions were not known to the lab workers who carried out the experiment. The vancomycin and control (Tris-Buffered Saline) were not masked.
Treatment was scheduled for every 15 minutes for 5 hours (21 total doses). However, PMX-1 and PMX-2 were exhausted after the 19th dose. Therefore, the actual treatment was 15 minutes for 4.5 hours (19 total doses). The 3 rabbits in group V were sacrificed 4 hours PI and large 9.5 mm buttons were removed from the corneas. These were placed in 1 ml of PBS and kept on ice. The corneal buttons were homogenized for 25 seconds on ice using the motorized homogenizer. After homogenization, colony counts were done on the homogenates using 5% sheep blood agar plates to determine the amount of bacteria contained in the corneas at the onset of therapy. Following the completion of therapy, the eyes were examined for clinical signs of infection. One hour after the final treatment, the treated rabbits (Groups I-IV) were sacrificed and large 9.5 mm buttons were removed from the corneas. These were placed in 1 ml of PBS and kept on ice. The corneal buttons were homogenized for 25 seconds on ice using the motorized homogenizer. After homogenization, colony counts were performed on the homogenates using 5% sheep blood agar plates to determine the amount of bacteria contained in the corneas after treatment. The next morning, the plates were counted and the number of cfu/eye of Staphylococcus aureus was determined for each cornea.
Fifteen rabbits were received from Myrtles' Rabbitry, Thompson Station, TN.

In assay [12] the test system is Fluoroquinolone-Resistant Methicillin-Resistant Staphylococcus aureus Strain K950. In words: MIC characterization of strain K950. The class given is cell-based. Particulars: read-out: MIC (Minimum Inhibitory Concentration).
Assay [13] deals with fluoroquinolone-resistant, methicillin-resistant Staphylococcus aureus (K950). As to the kind of experiment: NZW rabbit keratitis model, corneal colony counts. The class given is in vivo. Conditions: for Statistical comparison of corneal colony counts (< = significantly fewer colony counts): drops every 15 min. From the text:
One purpose of the following experiments was to compare the efficacy of 1% Oligomer 2, 0.5% Oligomer 2, and 5% vancomycin in the treatment of a fluoroquinolone-resistant, methicillin-resistant Staphylococcus aureus infection in the NZW rabbit keratitis model with or without intact corneal epithelia.
Nothing was done to the right eyes.
One purpose of the following experiments was to compare the efficacy of 0.25% Oligomer 2, with and without 0.005% benzalkonium chloride, and 5% vancomycin in the treatment of a fluoroquinolone-resistant, methicillin-resistant Staphylococcus aureus infection in the NZW rabbit keratitis model with or without intact corneal epithelia. The 0.005% benzalkonium chloride has been added to try to increase the penetration of 0.25% Oligomer 2 through the corneal epithelium.
One purpose of the following experiments was to determine the efficacy of 0.25% Oligomer 4, with and without 200 μM Farnesol, and 200 μM Farnesol in the treatment of a fluoroquinolone-resistant and methicillin-resistant Staphylococcus aureus infection in the NZW rabbit keratitis model with or without intact corneal epithelia. The 200 μM Farnesol has been added to try to increase the efficacy and penetration of 0.25% Oligomer 4 through the corneal epithelium.

In brackets after ≈: the same amount, converted by molar mass. Entries after “also recorded” stand apart in the source; their conditions may differ.

As to `CC(C)(C)c1cc(NC(=O)CCCCNC(=N)N)c(SCCNC(=N)N)c(NC(=O)c2cc(C(=O)Nc3cc(C(C)(C)C)cc(NC(=O)CCCCNC(=N)N)c3SCCNC(=N)N)ncn2)c1` [Oligomer 1], the MIC50 was determined as 0.125 µg/mL in assay [1]; 0.5 µg/mL in assay [2]; 0.25 µg/mL in [3]; 0.03 µg/mL in assay [4]; 4 µg/mL in [5]; 0.5 µg/mL in assay [6]. Also, the MIC50 was 16 µg/mL in assay [7], 4 µg/mL in assay [8], 16 µg/mL in assay [9] and 0.03 µg/mL in [10]. For the same molecule, the MIC90 was found to be 0.25 µg/mL in [1]; 0.5 µg/mL in assay [2]; 0.25 µg/mL in [3]; 0.125 µg/mL in assay [4]; 8 µg/mL in [5]; 1 µg/mL in [6]. For the same molecule, the MIC90 in [7] was determined as 32 µg/mL; in [8], 16 µg/mL; in assay [9] it was 64 µg/mL; in assay [10], 0.03 µg/mL.

With `CN[C@H](CC(C)C)C(=O)N[C@H]1C(=O)N[C@@H](CC(N)=O)C(=O)N[C@H]2C(=O)N[C@H]3C(=O)N[C@H](C(=O)N[C@H](C(=O)O)c4cc(O)cc(O)c4-c4cc3ccc4O)[C@H](O)c3ccc(c(Cl)c3)Oc3cc2cc(c3O[C@@H]2O[C@H](CO)[C@@H](O)[C@H](O)[C@H]2O[C@H]2C[C@](C)(N)[C@H](O)[C@H](C)O2)Oc2ccc(cc2Cl)[C@H]1O` [Vancomycin, reference compound], the “Total Ocular Score, Median” value in assay [11] (abraded epithelium) and in assay [11] (intact epithelium) was 9.5 throughout. The MIC in assay [12] worked out at 2 µg/mL (≈ 1.38 µM). The “Statistical comparison of corneal colony counts (< = significantly fewer colony counts)” value is on record as “Vancomycin<Saline Control” in assay [13] (Ker-1 (Example 9), abraded (removed) epithelium, 19 doses); “Vancomycin<Saline Control; also recorded: Vancomycin<PMX-1; also recorded: Vancomycin<PMX-2” in assay [13] (Ker-1 (Example 9), intact epithelium, 19 doses); “Vancomycin<Saline Control” in assay [13] (Ker-2 (Example 10), abraded (removed) epithelium, 21 doses); “Vancomycin<Saline Control; also recorded: Vancomycin<PMX-B” in assay [13] (Ker-2 (Example 10), intact epithelium, 21 doses). Moreover, the “Effect of Abraded Epithelium on colony counts (Intact vs. Abraded, two sample T-test)” value in assay [13] (Log10 CFU/ml, < = significantly fewer colony counts) is recorded as “Abraded = Intact”. Further, in assay [13] (Oligomer 2 study, two sample T-test, < = significantly fewer colony counts), the “Effect of Abraded Epithelium on Effectiveness of Each Test Solution (colony counts, abraded vs. intact)” value is listed as “Abraded = Intact”.
